PubChem BioAssay (NCI)
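At the GI50, growth is halved. Definition used: TGI = concentration required for complete inhibition of growth.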

How the values were obtained:
Assay in all cases: growth of human tumour cells (NCI), 384-well format
786-0 renal = system: 786-0 renal
HCC-2998 colon = system: HCC-2998 colon
HCT-116 colon = system: HCT-116 colon
HCT-15 colon = system: HCT-15 colon
LOX IMVI melanoma = system: LOX IMVI melanoma
MOLT-4 leukemia = system: MOLT-4 leukemia
NCI-H226 lung = system: NCI-H226 lung
OVCAR-8 ovarian = system: OVCAR-8 ovarian
RPMI-8226 leukemia = system: RPMI-8226 leukemia
SF-268 CNS = system: SF-268 CNS
SN12C renal = system: SN12C renal
SNB-75 CNS = system: SNB-75 CNS
SW-620 colon = system: SW-620 colon

SMILES: O=C1CC(c2ccc(N3CCOCC3)cc2)(c2ccsc2)NC(=O)C1Sc1ccccc1Cl (configuration not stated)
- GI50 (786-0 renal): 2.71 µM
- TGI (786-0 renal): > 21.3 µM
- GI50 (HCC-2998 colon): > 100 µM
- TGI (HCC-2998 colon): > 100 µM
- GI50 (HCT-116 colon): 36.8 µM
- TGI (HCT-116 colon): > 100 µM
- GI50 (HCT-15 colon): 63 µM
- TGI (HCT-15 colon): > 100 µM
- GI50 (LOX IMVI melanoma): 35.9 µM
- TGI (LOX IMVI melanoma): > 100 µM
- GI50 (MOLT-4 leukemia): 9.17 µM
- TGI (MOLT-4 leukemia): 22 µM
- GI50 (NCI-H226 lung): 50.3 µM
- TGI (NCI-H226 lung): > 100 µM
- GI50 (OVCAR-8 ovarian): 3.45 µM
- TGI (OVCAR-8 ovarian): 18.2 µM
- GI50 (RPMI-8226 leukemia): 10.5 µM
- TGI (RPMI-8226 leukemia): 41.2 µM
- GI50 (SF-268 CNS): 51.2 µM
- TGI (SF-268 CNS): > 100 µM
- GI50 (SN12C renal): 4.53 µM
- TGI (SN12C renal): 23.4 µM
- GI50 (SNB-75 CNS): > 100 µM
- TGI (SNB-75 CNS): > 100 µM
- GI50 (SW-620 colon): 16.7 µM
- TGI (SW-620 colon): > 51.8 µM

SMILES: C[C@@H]1CN(C(=O)c2ccc(NC(=O)c3cc(O[C@H](C)c4c(Cl)ccc(F)c4Cl)c(N)nn3)cc2)C[C@H](C)N1
- GI50 (786-0 renal): 1.86 µM
- TGI (786-0 renal): 3.5 µM
- GI50 (HCC-2998 colon): 2.14 µM
- TGI (HCC-2998 colon): 7.68 µM
- GI50 (HCT-116 colon): 1.41 µM
- TGI (HCT-116 colon): 4.34 µM
- GI50 (HCT-15 colon): 2.46 µM
- TGI (HCT-15 colon): 6.88 µM
- GI50 (LOX IMVI melanoma): 1.26 µM
- TGI (LOX IMVI melanoma): 2.52 µM
- GI50 (MOLT-4 leukemia): 0.181 µM
- TGI (MOLT-4 leukemia): 0.356 µM
- GI50 (NCI-H226 lung): 2.12 µM
- TGI (NCI-H226 lung): 8.92 µM
- GI50 (OVCAR-8 ovarian): 3.44 µM
- TGI (OVCAR-8 ovarian): 10.3 µM
- GI50 (RPMI-8226 leukemia): 0.943 µM
- TGI (RPMI-8226 leukemia): 2.49 µM
- GI50 (SF-268 CNS): 1.31 µM
- TGI (SF-268 CNS): 3.77 µM
- GI50 (SN12C renal): 1.82 µM
- TGI (SN12C renal): 11.7 µM
- GI50 (SNB-75 CNS): 2.21 µM
- TGI (SNB-75 CNS): 4.14 µM
- GI50 (SW-620 colon): 1.69 µM
- TGI (SW-620 colon): 3.48 µM
